# Results from US20240150313A1, “TRI-SUBSTITUTED INDOLE BINDING FUNCTION 3 (BF3) COMPOUNDS AND METHODS FOR THEIR USE” (The University of British Columbia, priority 2021, published 2024).
# Entries after “also recorded” stand apart in the source; their conditions may differ.
# Assays:
# [1] = tested on: LNCaP xenograft castration-resistant mouse model; test: Castration-resistant LNCaP xenograft: serum PSA and tumour growth; format: in vivo; conditions: oral treatment, listed as 13789 prodrug
# Method: Assessment of Prostate […] Antigen and Tumour Growth for Castration-resistant LNCaP Xenografts: 6-8-Week-old nude mice (Harlan Sprague-Dawley) weighing 25-31 g were subcutaneously inoculated with LNCaP cells ([…] in BD Matrigel, BD Biosciences) at the posterior dorsal site. Tumor volume, body weight, and serum PSA levels were measured weekly. Mice were castrated when serum PSA levels reached 50 ng/ml. […] Calipers were used to measure the three perpendicular axes of each tumor to calculate the tumor volume.
# [2] = Conversion of prodrug to parent drug in tissue homogenate; format: in vitro ADME; conditions: mouse small intestine tissue homogenate
# [3] = Water solubility for dosing formulation; format: physicochemical; conditions: required concentration 3.75 mg/mL
# Method: 13822 was water soluble and was formulated as plain aqueous solution at 3.75 mg/mL. […] A formulation screen was conducted to use various pharmaceutically acceptable surfactants and additives to develop a low organic solution or metastable heterogeneous suspension suitable for oral dosing.
compound,measurement,setting,value
CC(C)NC(=O)c1cccc2nc(-c3cn(COP(=O)(O)O)c4c(F)c(F)c(F)cc34)ccc12 [Compound 13822],tumour volume / growth in xenograft,[1]; up to 5 weeks,reduces tumor volume; also recorded: inhibited tumour growth to levels comparable with enzalutamide treatment
same,serum PSA production in xenograft,[1],inhibits PSA production; also recorded: reducing serum PSA levels
same,half-life,[2],~2 h
same,solubility in water,[3],water soluble
